Experimental data reported in patent publication US20220289794A1, “SYNTHETIC ANTIMICROBIAL PEPTIDES” (priority 2019, published 2022).
≈ marks a conversion by molar mass, not a printed value. Non-standard residues stand in square brackets, D forms with d. Residues, ends and D or L forms follow the SMILES beside them. Dip = N[C@H](C(=O)O)C(c1ccccc1)c1ccccc1

Tests used:
B. subtilis (ATCC-6633) = assay: Broad-spectrum activity against Gram-Positive bacteria (MIC); format: cell-based; set-up: unit not given here
E. coli (ATCC BAA-2452) = assay: Broad-spectrum activity against Gram-Negative bacteria (MIC); format: cell-based; conditions: Table 16, Gram-negative panel
B. cereus (ATCC-13061) = assay: Broad-spectrum activity against Gram-Positive bacteria (MIC); format: cell-based; set-up: unit not given here
[1] = test system: A. baumannii (ATCC BAA-1605); assay: Broad-spectrum activity against Gram-Negative bacteria (MIC); format: cell-based; conditions: Table 16, Gram-negative panel
[2] = test system: P. aeruginosa (ATCC 10145); assay: as above; format: cell-based; conditions: Table 16, Gram-negative panel
[3] = test system: P. aeruginosa (ATCC BAA-1744); assay: as above; format: cell-based; conditions: Table 16, Gram-negative panel
[4] = test system: Klebsiella pneumoniae (ATCC BAA-1705); conditions: Table 16, Gram-negative panel
human red blood cells = test system: human red blood cells; set-up: unit not given beside the values
[5] = test system: Enterococcus faecium ATCC 27270; conditions: E. faecium ATCC 27270
[6] = test system: Enterococcus faecium ATCC 700221; conditions: E. faecium ATCC 700221
[7] = test system: Klebsiella pneumoniae ATCC 13883; conditions: Table 16, Gram-negative panel
[8] = test system: Enterococcus faecalis ATCC 29212; conditions: E. faecalis ATCC 29212
[9] = test system: Enterococcus faecalis ATCC 51575; conditions: E. faecalis ATCC 51575
[10] = test system: Streptococcus pneumoniae ATCC 49619; conditions: S. pneumoniae ATCC 49619
[11] = test system: Streptococcus pneumoniae ATCC 51938; conditions: S. pneumoniae ATCC 51938
[12] = test system: Methicillin-resistant Staphylococcus aureus MRSA (ATCC BAA-1556); conditions: MRSA ATCC BAA-1556
S. aureus ATCC 29213 = conditions: S. aureus ATCC 29213
[13] = test system: Pseudomonas aeruginosa (ATCC 27883); conditions: P. aeruginosa ATCC 27883
[14] = test system: Escherichia coli (ATCC 25922); conditions: E. coli ATCC 25922

Compound	Broad-spectrum activity B. subtilis (ATCC-6633) (B. subtilis (ATCC-6633))	MIC E. coli (ATCC BAA-2452) (E. coli (ATCC BAA-2452)) [µg/mL]	Broad-spectrum activity B. cereus (ATCC-13061) (B. cereus (ATCC-13061))	MIC A. baumannii (ATCC BAA-1605) [1] [µg/mL]	MIC P. aeruginosa (ATCC 10145) [2] [µg/mL]	MIC P. aeruginosa (ATCC BAA-1744) [3] [µg/mL]	MIC K. pneumonia (ATCC BAA-1705) [4] [µg/mL]	HC50 (human red blood cells)	Broad-spectrum activity E. faecium (ATCC 27270) [5]	Broad-spectrum activity E. faecium (ATCC 700221) [6]	MIC K. pneumonia (ATCC 13883) [7] [µg/mL]	Broad-spectrum activity E. faecalis (ATCC 29212) [8]	Broad-spectrum activity E. faecalis (ATCC 51575) [9]	Broad-spectrum activity S. pneumoniae (ATCC 49619) [10]	Broad-spectrum activity S. pneumoniae (ATCC 51938) [11]	MIC MRSA ATCC BAA-1556 [12] [µg/mL]	MIC S. aureus ATCC 29213 (S. aureus ATCC 29213) [µg/mL]	MIC P. aeruginosa ATCC 27883 [13] [µg/mL]	MIC E. coli ATCC 25922 [14] [µg/mL]
N=C(N)NCCC[C@@H]1NC(=O)[C@H](CCCNC(=N)N)NC(=O)[C@H](C(c2ccccc2)c2ccccc2)NC(=O)[C@H](Cc2c[nH]c3ccccc23)NC(=O)[C@H](C(c2ccccc2)c2ccccc2)NC(=O)[C@H](CCCNC(=N)N)NC1=O [IFX-021, c[Arg-Arg-Arg-Dip-Trp-Dip]] (cyclo([Dip]RRR[Dip]W))	3.1	12.5 (≈ 11.3 µM)	6.2	25 (≈ 22.7 µM)	50 (≈ 45.4 µM)	25 (≈ 22.7 µM)	12.5 (≈ 11.3 µM)	260	6.2	3.1	> 50	12.5	12.5	50	25	–	–	–	–
N=C(N)NCCC[C@@H]1NC(=O)[C@H](CCCNC(=N)N)NC(=O)[C@H](CCCNC(=N)N)NC(=O)[C@H](C(c2ccccc2)c2ccccc2)NC(=O)[C@H](C(c2ccccc2)c2ccccc2)NC(=O)[C@H](Cc2c[nH]c3ccccc23)NC1=O [IFX-020, c[Arg-Arg-Arg-Trp-Dip-Dip]] (cyclo([Dip][Dip]RRRW))	1.5	6.2 (≈ 5.63 µM)	3.1	25 (≈ 22.7 µM)	25 (≈ 22.7 µM)	12.5 (≈ 11.3 µM)	12.5 (≈ 11.3 µM)	180	3.1	1.5	50 (≈ 45.4 µM)	6.2	12.5	25	12.5	–	–	–	–
c[Arg-Arg-Arg-Arg-Dip-trp-Dip] [IFX-089]	3.1	12.5	12.5	12.5	25	25	25	–	6.2	12.5	50	12.5	12.5	50	25	3.1	3.1	12.5	12.5
c[Arg-Arg-Arg-Arg-dip-trp-dip] [IFX-100]	1.5	25	3.1	12.5	50	25	25	–	3.1	6.2	> 50	6.2	12.5	25	12.5	1.5	1.5	12.5	12.5
c[Arg-arg-Arg-Arg-Dip-Trp-Dip] [IFX-093]	1.5	6.2	6.2	12.5	25	25	12.5	–	6.2	6.2	50	12.5	12.5	50	25	3.1	3.1	12.5	12.5
